The results in this text go back to patent publication US12697366B2, “Thermogenic compositions and methods” (Ohio State Innovation Foundation, priority 2016, dated 2026).

For one data set, the system named is A549. Briefly: MTT cytotoxicity on A549. Type of data set: cell-based. Particulars: Homo sapiens. The method, then: (§1) The non-oxidized CPT-CCKK nanotube was assessed for cytotoxic efficacy against human non-small cell lung cancer (NSCLC) cell lines A549, NCI-460, and NCI-H23, which were selected according to the indications of approved CPT derivative Topotecan. […] The explanation for the cytotoxicity results could be that CPT-CCKK release active CPT in a time-dependent manner, and the entire true concentration for CPT in the cell medium is less than that of free CPT. […] It has been reported before that the GSH level in H460 was almost twice higher than that in A549. Therefore, higher concentration of GSH in H460 accelerated the breakage of the disulfide bonds within the crosslinked CPT-CCKK nanotubes, leading to faster release of active CPT and higher in vitro cytoxicity.

The test system of a further data set is NCI-460. Briefly: MTT cytotoxicity on NCI-460 (H460). Particulars: Homo sapiens. Type of data set: cell-based. The method, then:
as §1

For a further data set, the system named is NCI-H23. Briefly: MTT cytotoxicity on NCI-H23. Type of data set: cell-based, human. The method, then:
as §1

For another data set, the system named is 3T3-L1 cells. Briefly: LDH release cytotoxicity (CytoTox 96) in 3T3-L1 cells. Type of data set: cell-based, mouse. Particulars: different concentrations, 6 hours. The method, then: Non-differentiated, 90% confluent 3T3-L1 cells were incubated with different concentrations of nanoscaffolds #1, #2, or #3 for 6 hours. Cytotoxicity was measured the lactate dehydrogenase (LDH), released upon cell lysis using The CytoTox 96 assay (Promega, Cat #G1780).
A general note: LDH in the medium is a marker of cell lysis.

Data set [1] has as its system HT-29 colorectal cancer cells. Briefly: Viability / cytotoxicity assay on HT-29 colorectal cancer cells. Particulars: in vitro. It is filed as cell-based, human.
Data set [2] relates to Brainbow (BB) mice fed a high-fat (HF) diet. Briefly: Study 5: recombinant EFNA5 injected into iAb fat of Brainbow mice fed a HF diet. It is filed as in vivo, mouse. The method, then: Brainbow (BB) B6.Cg-Tg(Thy1-Brainbow1.0)HLich/J mice were purchased from The Jackson Laboratory (n=7, females). 5-week old BB mice were fed a HF for 140 days. Then mice were randomly assigned into groups injected with PBS (n=3) and recombinant EFNA5 (n=4). Mice were individually housed for all treatment periods. Mice were injected into both iAb fat depots with 100 μL PBS/iAb depot or with PBS containing recombinant EFNA5 (Life Technologies, 45 ng/mL) every other day for 1 month. Metabolic measurements were performed. WAT were collected for protein, mRNA, and histology.
Metabolic parameters were measured by indirect calorimetry (CLAMS, Columbus Instruments, Columbus, OH) at ambient temperature (22° C.) with 12 h light/dark cycles. Animals were fed the same HF diet and water was provided ad libitum. Mice were placed individually and allowed to acclimatize in the chambers for 12 h. Oxygen consumption, CO2 production, energy expenditure, and locomotor activity were measured for at least 24 h. […] For cold exposure the temperature was changed to 4° C. for 6 h.
Cell/tissue protein lysates normalized by protein content (BCA, ThermoFisher). Medium was collected from cells plated at similar numbers. Protein lysate or medium were separated on 10% acrylamide gel under reducing conditions. After transfer to a polyvinylidene fluoride membrane (Immobilon-P; Millipore), proteins were analyzed using an Odyssey Infrared Imaging System (LI-COR Biosciences). Peripherin and tyrosine hydroxylase polyclonal rabbit antibodies (Abcam, Cambridge, MA) were used at 1:1000 dilution.

For another data set, the system named is DRG neurons. Briefly: Neurite outgrowth of DRG neurons (ArrayScan XTI, Neuronal Profiling algorithm). Type of data set: cell-based, mouse. Particulars: recombinant EFNA5 30 ng/mL, 24 hours. On the procedure:
Single cell suspensions from cervical, thoracic, and lumbar DRG neurons were isolated from terminally anesthetized C57BL/6 adult female mice (12-16 weeks old, The Jackson Laboratory). Dissected DRGs were enzymatically digested in a solution of collagenase type 2 (200 U/mL; Sigma, St. Louis, MO) and dispase I (5 U/mL; Sigma) on a shaker for 45 min at 37° C. (Davies et al., 1999). Enzyme solution was aspirated and cells were washed twice in Hank's Balanced Salt Solution 1× (HBSS; Mediatech Inc., Manassas, VA) before incubating in DNase I type II (5 mg/mL; Worthington Biochemical, Lakewood, NJ) for 5 min at room temperature. […] The neuron-enriched pellet was resuspended in DRG culture medium (DMEM/F12, 1% N2 supplement, and 0.05% Gentamicin) and live cells were counted on a hemocytometer using trypan blue exclusion. […] Cells were automatically imaged using a Thermo Scientific™ ArrayScan™ XTI Live High Content microscope and analyzed with the Neuronal Profiling algorithm (ThermoFisher) (Lerch et al., 2014). Total neurite length, average neurite length, number of branch points, critical value, dendrite maximum, and ramification index were averaged across all neurons detected per well, with 3 wells included per treatment. […] Dendrite maximum and critical value are parameters determined based on Scholl analysis, and are automatically generated by the software. […]

A further data set deals with 3T3-L1 adipocytes. Briefly: Thermogenic gene expression in 3T3-L1 adipocytes (TaqMan / RT-PCR). Particulars: recombinant EFNA5 10 ng/mL, 4 days. It is filed as cell-based, mouse. The method, then:
FIGS. 9A to 9D show DRG neurons (500 neurons per well) cultured in DRG culture medium only, or DRG culture medium with NT-3 (1 ng/mL), with NGF (10 ng/mL), with WT secretome (1/1, v/v), or with Aldh1a1^−/− secretome (1/1, v/v) for 24 hours. WT and Aldh1a1^−/− adipocytes differentiated for 5 days. Secretome is the media collected from these cells for 24 h. Neurite outgrowth parameters were assayed using the Thermo Scientific™ ArrayScan™ XTI Live High Content microscope and analyzed with the Neuronal Profiling Algorithm (ThermoFisher). Nine independent experiments were performed using DRG from three mice. Each DRG batch was analyzed in triplicate. Data are shown as mean±SD obtained with one DRG batch. Asterisks indicate P<0.05 between different groups; Mann-Whitney U test. FIG. 9A: Representative images show ~25% of area used for the automatic quantification of neuronal parameters in FIG. 3 per one condition. […] FIG. 9B: Secreted EFNA5 levels in the medium from 3T3-L1 preadipocytes and adipocytes differentiated for 4d were analyzed by ELISA. FIG. 9C: Basal metabolic rate (heat) was measured in PBS- and EFNA5-injected mice from Table 1, Study 4 by an open circuit indirect calorimetry treadmill. […] Expression was measured by RT-PCR and normalized by 18S.
FIGS. 11A to 11I show adipokine Ereg is bilaterally associated with obesity and thermogenesis and activates PPARα. […] FIG. 11B: Ereg expression was measured in non-differentiated and differentiated (day 5) 3T3-L1 adipocytes (Mann-Whitney test) using a customized NanoString mouse panel. FIG. 11C: Ereg expression was measured in differentiated (day 5) 3T3-L1 and Aldh1a1^−/− adipocytes by Taqman and normalized to TATA box protein (TBP). FIG. 11D: Plasma EREG concentrations were measured in mice from Study 1 by western blot. […] FIG. 11E: Plasma EREG concentrations were measured and quantified in iAb of WT and ob/ob mice from Study 2 by western blot (n=5 per each group). […] FIG. 11F: EREG was measured in iAb, subcutaneous and brown fat by western blot. […] Expression level were measured by Taqman and normalized by TBP. […]
Background: In qPCR the cycle at which signal appears reflects the starting amount.

[3] abbreviates: Study 5, BB mice, HF diet, EA5 vs PBS.

Usually IC50 stands for the concentration needed to halve the response being measured. Higher therefore signals weaker potency in that assay.

Non-standard residues stand in square brackets, D forms with d. Residues, ends and D or L forms follow the SMILES beside them. ξ: configuration not given here. *: point of attachment. Succinyl(20-O-(20S)-CPT) = CC[C@@]1(OC(=O)CCC(=O)*)C(=O)OCc2c1cc1n(c2=O)Cc2cc3ccccc3nc2-1; Fmoc = O=C(OCC1c2ccccc2-c2ccccc21)*; ξK = NCCCCC(N)C(=O)O; Bz = O=C(c1ccccc1)*; ξC = NC(CS)C(=O)O

Regarding `CC[C@@]1(O)C(=O)OCc2c1cc1n(c2=O)Cc2cc3ccccc3nc2-1` [CPT, Camptothecin], the half-inhibitory concentration (IC50) with A549 (96 h MTT, experiment with non-oxidized nanotube (FIG. 36A)) is 200 nM; with A549 (experiment with crosslinked nanotubes (FIG. 36B)), roughly 830 nM; in the data set on NCI-460 (NCI-460, 96 h MTT, experiment with non-oxidized nanotube (FIG. 36A)), 270 nM; in the data set on NCI-460 (H460, experiment with crosslinked nanotubes (FIG. 36B)), 350 nM; in the data set on NCI-H23 (Homo sapiens, NCI-H23, 96 h MTT, experiment with non-oxidized nanotube (FIG. 36A)) it was 190 nM.
As for Fmoc-KK(SucBz) [nanoscaffold #1], in the data set on 3T3-L1 cells, the “cytotoxicity (LDH release)” value is listed as “not toxic”.
For `CC[C@@]1(OC(=O)CCC(=O)NC(CS)C(=O)NC(CS)C(=O)NC(CCCCN)C(=O)NC(CCCCN)C(N)=O)C(=O)OCc2c1cc1n(c2=O)Cc2cc3ccccc3nc2-1` (stereo partly drawn) [CPT-CCKK] ({Succinyl(20-O-(20S)-CPT)}-[ξC][ξC][ξK][ξK]-NH2), the “less cytotoxic than parental drug CPT” value in the data set on NCI-H23 (H23 cell lines) is reported as “roughly 3 folds”.
As to `NCCCC[C@H](NC(=O)OCC1c2ccccc2-c2ccccc21)C(=O)N[C@@H](Cc1ccccc1)C(=O)N[C@@H](CCCCN)C(=O)N[C@@H](CCCCNC(=O)c1ccccc1)C(N)=O` [Fmoc-KFKK(Bz)-NH2] (Fmoc-KFKK(Bz)-NH2), the “cytotoxic efficacy against human colorectal cell line” value in data set [1] is recorded as “no efficacy”.
For the molecule `CCN(CC)c1ccc2cc(C(=O)NCCCC[C@H](NC(=O)[C@H](CCCCN)NC(=O)OCC3c4ccccc4-c4ccccc43)C(N)=O)c(=O)oc2c1` [nanoscaffold #2, Fmoc-KK(DAC)], the “cytotoxicity (LDH release)” value with 3T3-L1 cells is “not toxic”.

B1: EFNA5: recombinant ephrin-A5 ligand protein (protein)
chain: QDPGSKVVADRYAVYWNSSNPRFQRGDYHIDVCINDYLDVFCPHYEDSVPEDKTERYVLYMVNFDGYSACDHTSKGFKRWECNRPHSPNGPLKFSEKFQLFTPFSLGFEFRPGREYFYISSAIPDNGRRSCLKLKVFVRPTNSCMKTIGVHDRVFDVNDKVENSLEPADDTVHESAEPSRGEN
Regarding B1, in data set [2] (EFNA5- vs. PBS-injected mice, 4° C.), the “metabolic rate on cold exposure” value is on record as “increased”. For the same molecule, in data set [2] (EFNA5 vs. PBS, after 2 weeks of treatment, Western blot), the “tyrosine hydroxylase protein levels in WAT” value is on record as “increased”. Also, in data set [2] (setting [3]), the “Body Wt.” value is 28.7 ± 3.2 g, the “Brown Fat” value is given as 0.1 ± 0.03 g, the “Sub Fat” value is 1.0 ± 0.4 g and the “iAb Fat” value was found to be 1.2 ± 0.5 g. In addition, the “dendritic maximum and critical value in neurons” value with DRG neurons is reported as “increased”. In addition, in the data set with 3T3-L1 adipocytes, the “regulation of expression of thermogenic genes (Ucp1)” value is “no direct effect”.
